This note sets out measurements from US20260356840A1, “[1,2,4]TRIAZOLO[1,5-A]PYRIMIDINONE WRN INHIBITORS” (Nimbus Wadjet, Inc., priority 2023, published 2026).

T1 sequence (Q14191 517-1235 L1074F): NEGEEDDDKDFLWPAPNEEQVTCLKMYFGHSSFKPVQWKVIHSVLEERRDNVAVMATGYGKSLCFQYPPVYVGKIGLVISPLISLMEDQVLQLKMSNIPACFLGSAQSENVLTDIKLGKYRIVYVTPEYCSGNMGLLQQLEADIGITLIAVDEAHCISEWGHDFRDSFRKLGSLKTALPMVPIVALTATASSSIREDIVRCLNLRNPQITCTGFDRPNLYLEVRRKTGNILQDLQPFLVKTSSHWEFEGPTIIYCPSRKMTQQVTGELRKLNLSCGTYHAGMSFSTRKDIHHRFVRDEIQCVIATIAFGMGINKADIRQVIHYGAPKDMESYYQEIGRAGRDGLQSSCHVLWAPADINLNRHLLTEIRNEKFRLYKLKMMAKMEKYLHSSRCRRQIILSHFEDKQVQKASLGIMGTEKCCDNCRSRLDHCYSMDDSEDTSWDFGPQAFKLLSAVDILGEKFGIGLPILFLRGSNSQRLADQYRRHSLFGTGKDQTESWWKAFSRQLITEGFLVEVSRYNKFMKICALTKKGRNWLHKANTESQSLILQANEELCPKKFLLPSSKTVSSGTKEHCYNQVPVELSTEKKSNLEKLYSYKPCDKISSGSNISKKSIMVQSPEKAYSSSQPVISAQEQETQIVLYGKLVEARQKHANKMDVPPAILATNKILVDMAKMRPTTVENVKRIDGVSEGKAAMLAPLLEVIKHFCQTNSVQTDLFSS

This assay addresses T1, human Werner helicase (Uniprot Q14191, amino acids 517-1235 with L1074F point mutation), WRN-BV08 (Homo sapiens, UniProt Q14191, L1074F).
T1 construct: Uniprot Q14191, amino acids 517-1235 with L1074F point mutation; TEV cleavable 8xHis tag (C, cleaved yes); made in house; host or cells: Sf9 insect cells (baculovirus, pFastBac)
Nature of the assay: WRN (BV08) ADP-Glo Assay. Format: biochemical. The procedure: DNA duplex was synthesized at BGI (Shenzhen, China) and was composed of strand 1 with the sequence 5′-[…]-3′ (SEQ ID NO.: 1) and strand 2 with the sequence 5′-[…]-3′ (SEQ ID NO.: 2). DNA strands were annealed by heating to 95 °C for 5 minutes followed by slow cooling to room temperature. […] DMSO (0.1 μl) was added to columns 12, rows A-H and column 24, rows I-P for the maximum signal control.
Where RLU=relative luminescence units, sample=signal in sample well, and MIN and MAX are the respective minimum and maximum signal controls. • Four-parameter IC50 fit equation:
Y=Bottom+(Top−Bottom)/(1+(IC50/X)^Hill Slope)
Where top and bottom are normally allowed to float but may be fixed at 100 or 0 respectively in a 3-parameter fit. Y is the % inhibition and X is the compound concentration.
Molecular Biology and virus production. […] The baculovirus from the expression plasmid WRN-BV08 was generated from transfection and amplification following the manufacturer's instructions.
Sf9 cells grown in SF900II media were infected with 1:200 WRN-BV08 P2 virus and incubated for protein expression for 72 h at 27 °C. The WRN protein was purified using the following protocol. The cell pellets were thawed and resuspended in buffer A (50 mM Tris, pH 7.5, 500 mM NaCl, 1 mM TCEP, 10% Glycerol) supplemented with 0.5% CHAPS, 1 mM [COMPOUND LEFT OUT], 1 μg/ml Leupeptin, 1 μg/ml Pepstatin, and the Pierce Universal Nuclease and cocktail tablet. Cleared lysates were loaded onto a Ni Sepharose™ excel column and washed with buffer A and bound protein was eluted with buffer A supplemented with 300 mM imidazole. The eluted protein was dialyzed against buffer A and digested by His-tagged TEV (1:5 ratio) overnight at 4 °C. […] Untagged WRN protein was eluted from the column with buffer A supplemented with 20 mM imidazole, dialyzed overnight into buffer B (50 mM Tris, pH 7.5, 1 mM TCEP, 10% Glycerol) supplemented with 150 mM NaCl and loaded onto a Heparin column. Proteins were eluted with a step gradient of buffer B supplemented with 150 mM, 200 mM, 300 mM and 500 mM NaCl.
A general note: In ADP-Glo the light output rises with the ADP produced.
Molecule `CCc1c(N2CCN(C(=O)c3ccnc(OC)c3O)CC2)c(=O)n2nc(C3=CCOCC3)nc2n1CC(=O)Nc1ccc(C(F)(F)F)cc1Cl` [Compound I-34, N-[2-chloro-4-(trifluoromethyl)phenyl]-2-[2-(3,6-dihydro-2H-pyran-4-yl)-5-ethyl-6-[4-(3-hydroxy-2-methoxypyridine-4-carbonyl)piperazin-1-yl]-7-oxo-4H,7H-[1,2,4]triazolo[1,5-a]pyrimidin-4-yl]acetamide] showed an IC50 of 5 to 50 nM.

Molecule `CCc1c(N2CCN(C(=O)c3nn(C)cc3O)CC2)c(=O)n2nc(-c3ccnc(OC)c3)nc2n1CC(=O)Nc1ccc(C(F)(F)F)cc1Cl` [Compound I-35, N-[2-chloro-4-(trifluoromethyl)phenyl]-2-{5-ethyl-6-[4-(4-hydroxy-1-methyl-1H-pyrazole-3-carbonyl)piperazin-1-yl]-2-(2-methoxypyridin-4-yl)-7-oxo-4H,7H-[1,2,4]triazolo[1,5-a]pyrimidin-4-yl}acetamide] showed an IC50 of 5 to 50 nM. As for `CCc1c(N2CCN(C(=O)c3nn(C)cc3O)CC2)c(=O)n2nc(C3CC3)nc2n1CC(=O)Nc1ccc(C(F)(F)F)cc1Cl` [Compound I-36, N-[2-chloro-4-(trifluoromethyl)phenyl]-2-{2-cyclopropyl-5-ethyl-6-[4-(4-hydroxy-1-methyl-1H-pyrazole-3-carbonyl)piperazin-1-yl]-7-oxo-4H,7H-[1,2,4]triazolo[1,5-a]pyrimidin-4-yl}acetamide], the concentration for half-maximal inhibition (IC50) fell in the range of 100 to 500 nM. In the case of `CCc1c(N2CCN(C(=O)c3ccnc4cccnc34)CC2)c(=O)n2nc(C3=CCOCC3)nc2n1CC(=O)Nc1ccc(C(F)(F)F)cc1Cl` [Compound I-37, N-[2-chloro-4-(trifluoromethyl)phenyl]-2-[2-(3,6-dihydro-2H-pyran-4-yl)-5-ethyl-6-[4-(1,5-naphthyridine-4-carbonyl)piperazin-1-yl]-7-oxo-4H,7H-[1,2,4]triazolo[1,5-a]pyrimidin-4-yl]acetamide], the IC50 is 5 to 50 nM. `CCc1c(N2CCN(C(=O)c3cn[nH]n3)CC2)c(=O)n2nc(C3=CCOCC3)nc2n1CC(=O)Nc1ccc(C(F)(F)F)cc1Cl` [Compound I-38, N-[2-chloro-4-(trifluoromethyl)phenyl]-2-[2-(3,6-dihydro-2H-pyran-4-yl)-5-ethyl-7-oxo-6-[4-(2H-1,2,3-triazole-4-carbonyl)piperazin-1-yl]-4H,7H-[1,2,4]triazolo[1,5-a]pyrimidin-4-yl]acetamide] returned an IC50 of less than 5 nM. On to `CCc1c(N2CCN(C(=O)[C@H]3C[C@@H](O)C3)CC2)c(=O)n2nc(C3=CCOCC3)nc2n1CC(=O)Nc1ccc(C(F)(F)F)cc1Cl` [Compound I-39, N-[2-chloro-4-(trifluoromethyl)phenyl]-2-[2-(3,6-dihydro-2H-pyran-4-yl)-5-ethyl-7-oxo-6-{4-[(1s,3s)-3-hydroxycyclobutanecarbonyl]piperazin-1-yl}-4H,7H-[1,2,4]triazolo[1,5-a]pyrimidin-4-yl]acetamide], for which the IC50 was in the range of 5 to 50 nM. As for `CCc1c(N2CCN(C(=O)CC(C)(C)O)CC2)c(=O)n2nc(C3=CCOCC3)nc2n1CC(=O)Nc1ccc(C(F)(F)F)cc1Cl` [Compound I-40, N-[2-chloro-4-(trifluoromethyl)phenyl]-2-[2-(3,6-dihydro-2H-pyran-4-yl)-5-ethyl-6-[4-(3-hydroxy-3-methylbutanoyl)piperazin-1-yl]-7-oxo-4H,7H-[1,2,4]triazolo[1,5-a]pyrimidin-4-yl]acetamide], the IC50 was 50 to 100 nM. For the molecule `CCc1c(N2CCN(C(=O)c3nnc(C)s3)CC2)c(=O)n2nc(C3=CCOCC3)nc2n1CC(=O)Nc1ccc(C(F)(F)F)cc1Cl` [Compound I-41, N-[2-chloro-4-(trifluoromethyl)phenyl]-2-[2-(3,6-dihydro-2H-pyran-4-yl)-5-ethyl-6-[4-(5-methyl-1,3,4-thiadiazole-2-carbonyl)piperazin-1-yl]-7-oxo-4H,7H-[1,2,4]triazolo[1,5-a]pyrimidin-4-yl]acetamide], the IC50 lay in the range of 5 to 50 nM.

Broadly, the IC50 is the concentration at which inhibition is half-maximal. Low readings indicate inhibition by little substance, high ones a need for much substance.
